Like-named read-outs stand apart in the source and are kept apart here.
Key:
[1] = system: third instar T. ni larvae; test: whole plant or invertebrate; conditions: for mortality at 0.25 %: Trichoplusia, topical, 24 h
Experimental: (§1) Initial screening for feeding deterrent effects was conducted at 50 μg/cm^2 in feeding deterrent bioassays.
Mortality was determined 24 h after spraying larvae directly with test solutions. Third instar T. ni larvae were sprayed in 90 mm×15 mm Petri dishes (Falcon) lined with Fisher Scientific filter paper (90 mm diameter). Small plastic hand spraying bottles (50 mL capacity) were used. Larvae were then transferred to Petri dishes (90 mm×15 mm) with a small piece of artificial diet. Each Petri dish contained 10 larvae. Three replicates, each consisting of 10 larvae, were used per treatment.

[2] = system: third instar T. ni larvae; test: Leaf disk choice feeding deterrence bioassay; assay type: in vivo, Trichoplusia ni; conditions: for pest or weed control at 50 µg/cm2, 50 µg/cm2 / pest or weed control at 50 µg/cm2: Trichoplusia, foliar; for pest or weed control at 50 µg/cm2: feeding deterrence (FD), Table 12, non-toxic feeding deterrents, read-out: % deterrence; for DC50: feeding deterrence DC50, unit not given in Table 12; for Feeding deterrency: Table 6 summary class
Description: Cabbage plants (Brassica oleraceae var. Stonehead) used in the bioassays were routinely grown in plastic pots with a mixture of sandy loam soil and peat moss (4:1) in a greenhouse at the University of British Columbia, Vancouver, BC, Canada. Leaves were collected from cabbage plants that were 5-6 weeks old.
T. ni larvae and moths were obtained from a long established colony (>50 generations) maintained on an artificial diet, Velvetbean Caterpillar Diet No. F9796 [Bio-Sery Inc. (Frenchtown, NIL)] in the insectary of the University of British Columbia (UBC).
as §1
Larvae were given the choice of feeding on two leaf disks, one treated with 10 μL of a solution of the test substance painted on each side and the other treated with a carrier solvent alone. The number of larvae was 25 per treatment.
Feeding deterrence data (percent) for initial screening concentration were analyzed by analysis of variance (ANOVA) after arcsin transformation using statistics software (Statistix 7. Analytical Software, Statistix 7 for Windows 95, 98, NT, 2000. Analytical Software, Tallahassee).

T. ni moths [3] = test: Oviposition choice (deterrence) bioassay on cabbage leaves; assay type: in vivo, Trichoplusia ni; conditions: for pest or weed control at 0.25 %: Trichoplusia, read-out: OD (%), mean ± SE (n = 25-33); for % deterrence / Index = deterrence/mortality: Table 11; for % deterrence: BL mark not explained; for Index = deterrence/mortality: oviposition deterrence divided by mortality; for Oviposition deterrency: Table 6 summary class, 0.25%
Experimental: as §1
T. ni larvae were reared on normal diet from neonates (<24 h old) until pupation. Pupae were sexed and put in separate plastic containers until emergence. After eclosion, pairs of moths (one male and one female) were introduced into each cage with a control and a treated cabbage leaf. Pairs of moths (n=25) were used per treatment. Each leaf (approximately 100-110 cm^2) was sprayed with 0.5 mL of MeOH or a methanolic solution of the test chemical on each side. Eggs were counted on each cabbage leaf after 48 h.

T. ni moths [4] = test: as above; assay type: in vivo, Trichoplusia ni; conditions: Trichoplusia, 48 h, at 0.25%, read-out: OD (%) Mean ± SE N = 35-40
[5] = Table 4, 1,3-dialkoxybenzenes, feeding deterrence at 50 μg/cm^2, read-out: FD (%), mean (SE (n = 25))
[6] = read-out: Mortality (%) N = 3 × 10, Table 8, at 0.25%
[7] = Table 8, 50 μg/cm^2, read-out: F.D (%) Mean ± SE N = 25
[8] = read-out: mortality (%) (n = 3 × 10), Table 4, at 0.25%
[9] = contact toxicity to larvae, negative or zero values replaced by 0.1 for the index (footnote b)
[10] = 48 h, Table 4, oviposition deterrence at 0.25%, 48 h
[11] = Table 3, 1,4-dialkoxybenzenes, feeding deterrence at 50 μg/cm^2, read-out: FD (%), mean ± SE (n = 25)
[12] = read-out: mortality (%) (n = 3 × 10), Table 3, at 0.25%
[13] = oviposition deterrence at 0.25%
[14] = 48 h, Table 3, oviposition deterrence at 0.25%, 48 h

C=CCOc1ccccc1OCC=C [3a{6,6}, 1,2-Diallyloxy benzene]
mortality at 0.25 % ([1]; read-out: mortality (%) (n = 3 × 10), Table 5, at 0.25%): 20%
pest or weed control at 50 µg/cm2, 50 µg/cm2 ([2]; Table 5, 1,2-dialkoxybenzenes, feeding deterrence at 50 μg/cm^2, read-out: FD (%), mean ± SE (n = 25)): 70.4 ± 13.2%
pest or weed control at 0.25 % (T. ni moths [3]; 48 h, Table 5, oviposition deterrence at 0.25%, 48 h): 15%

COc1cccc(OC)c1 [3b{1,1}, 1,3-Dimethoxy benzene]
pest or weed control at 50 µg/cm2, 50 µg/cm2 [2, 5]: 20.4 ± 19.1%

COc1cccc(OCCC(C)C)c1 [3b{1, 5}, 1-methoxy-3-(3-methyl-butyloxy)benzene]
mortality at 0.25 % [1, 6]: 30%
pest or weed control at 0.25 % (T. ni moths [4]; Table 8): 25 to 30%
pest or weed control at 50 µg/cm2, 50 µg/cm2 [2, 7]: 89 ± 7%

CCOc1cccc(OCC)c1 [3b{2,2}, 1,3-Diethoxy benzene]
mortality at 0.25 % [1, 8]: 36.7%
% mortality [1, 9]: 37%
pest or weed control at 50 µg/cm2, 50 µg/cm2 [2, 5]: 89.4 ± 8.3%
pest or weed control at 50 µg/cm2 [2]: 89%
DC50 [2]: 29 μg/cm^2
pest or weed control at 0.25 % (T. ni moths [3]; [10]): 3.4%

CCCOc1cccc(OCCC)c1 [3b{3,3}, 1,3-Dipropoxy benzene]
LC50 ([1]; Table 4, concentration causing 50% mortality): 0.16%
mortality at 0.25 % [1, 8]: 76.7%
% mortality [1, 9]: 77%
pest or weed control at 50 µg/cm2, 50 µg/cm2 [2, 5]: 96.9 ± 3.1%
pest or weed control at 50 µg/cm2 [2]: 97%
DC50 [2]: 27 μg/cm^2
pest or weed control at 0.25 % (T. ni moths [3]; [10]): 33%

CC(C)CCOc1cccc(OCCC(C)C)c1 [3b{5,5}, 1,3-Di-(3-methyl-butyloxy)benzene]
pest or weed control at 50 µg/cm2, 50 µg/cm2 [2, 5]: -12.2 ± 18.8%

C=CCOc1cccc(OCCC(C)C)c1 [3b{5, 6}, 1-allyloxy-3-isopentoxybenzene]
pest or weed control at 0.25 % (T. ni moths [4]; Table 8): 10 ± 13%

COc1ccc(OC)cc1 [3c{1,1}, 1,4-Dimethoxy benzene]
pest or weed control at 50 µg/cm2, 50 µg/cm2 [2, 11]: 9.9 ± 18%

C=CCOc1ccc(OC)cc1 [3c{1, 6}, 1-allyloxy-4-methoxybenzene]
mortality at 0.25 % [1, 6]: 6%
pest or weed control at 50 µg/cm2, 50 µg/cm2 [2, 7]: 62 ± 15%

CCOc1ccc(OCC)cc1 [3c{2, 2}, 1,4-Diethoxy benzene]
LC50 ([1]; Table 3, concentration causing 50% mortality compared with the control): 0.03%
% mortality ([1]; Table 11, at 0.25%): 100%
mortality at 0.25 % [1, 12]: 100%
% mortality [1, 9]: 100%
pest or weed control at 50 µg/cm2, 50 µg/cm2 [2, 11]: 80.8 ± 11.3%
pest or weed control at 50 µg/cm2 [2]: 81%
DC50 [2]: 26 μg/cm^2
OD (%), mean ± SE (n = 25-33) (T. ni moths [3]; Table 3, oviposition deterrence at 0.25%, 48 h): 74.7 ± 13.3a %
% deterrence (T. ni moths [3]; [13]): 75%
Index = deterrence/mortality (T. ni moths [3]): 0.75
pest or weed control at 0.25 % (T. ni moths [3]; [14]): 74.7%

CCCOc1ccc(OCCC)cc1 [3c{3,3}, 1,4-Dipropoxy benzene]
mortality at 0.25 % [1, 12]: 22.6%
% mortality [1, 9]: 23%
pest or weed control at 50 µg/cm2, 50 µg/cm2 [2, 11]: 96 ± 2.8%
pest or weed control at 50 µg/cm2 [2]: 96%
DC50 [2]: 20 μg/cm^2
pest or weed control at 0.25 % (T. ni moths [3]; [14]): 11.8 ± 13.1%

CC(C)CCOc1ccc(OCCC(C)C)cc1 [3c{5,5}, 1,4-Di-(3-methyl-butyloxy)benzene]
pest or weed control at 50 µg/cm2, 50 µg/cm2 [2, 11]: 44 ± 18.3%

C=CCOc1ccc(OCCCC)cc1 [3c{6,4}, 1-allyloxy-4-butoxy benzene]
mortality at 0.25 % [1, 12]: 10%
pest or weed control at 50 µg/cm2, 50 µg/cm2 [2, 11]: 84 ± 10.7%
pest or weed control at 0.25 % (T. ni moths [3]; [14]): 16.8 ± 13.8%

C=CCOc1ccc(OCC=C)cc1 [3c{6,6}, 1,4-Diallyloxy benzene]
mortality at 0.25 % [1, 12]: 16%
% mortality [1, 9]: 16%
pest or weed control at 50 µg/cm2, 50 µg/cm2 [2, 11]: 96.9 ± 3.6%
pest or weed control at 50 µg/cm2 [2]: 97%
DC50 [2]: 24 μg/cm^2
pest or weed control at 0.25 % (T. ni moths [3]; [14]): 14.1 ± 13.1%

C=CCc1c(OC)cccc1OCCC [5b{3, 1} y (100% y), 1-methoxy-2-allyl-3-propoxy-benzene]
pest or weed control at 0.25 % (T. ni moths [4]; Table 7, second lots and purified isomers): 17 ± 14%
pest or weed control at 50 µg/cm2, 50 µg/cm2 ([2]; Table 7, second lots and purified isomers, 50 μg/cm^2, read-out: F.D (%) Mean ± SE N = 25): 100%

CCOc1ccc(OCC)cc1 [drawing 17]
Feeding deterrency ([2]; 50 μg/cm^2): strong (Strong feeding deterrency, >80%)
Oviposition deterrency (T. ni moths [3]): strong (Strong oviposition deterrency, >50%)

CCCOc1cccc(OCCC)c1 [drawing 18]
Feeding deterrency ([2]; 50 μg/cm^2): strong (Strong feeding deterrency, >80%)
Oviposition deterrency (T. ni moths [3]): moderate (moderate, >25%)

CCCOc1ccc(OCCC)cc1 [drawing 22]
Feeding deterrency ([2]; 50 μg/cm^2): strong (Strong feeding deterrency, >80%)
Oviposition deterrency (T. ni moths [3]): weak (weak, >10%)

C=CCOc1ccc(OCC=C)cc1 [drawing 23]
Feeding deterrency ([2]; 50 μg/cm^2): strong (Strong feeding deterrency, >80%)
Oviposition deterrency (T. ni moths [3]): weak (weak, >10%)

C=CCOc1ccc(OCCCC)cc1 [drawing 24]
Feeding deterrency ([2]; 50 μg/cm^2): strong (Strong feeding deterrency, >80%)
Oviposition deterrency (T. ni moths [3]): weak (weak, >10%)

butyl eugenol
% mortality ([1]; in vivo): 15%
% deterrence (T. ni moths [3]; [13]): 34 BL %
Index = deterrence/mortality (T. ni moths [3]): 2.2
